Results published in publication doi:10.1101/2025.03.03.641193, “Trihydroxybenzaldoximes are redox cycling inhibitors of ThDP-dependent DXP synthase” (bioRxiv, 2025).
Entries after “also recorded” stand apart in the source; their conditions may differ.

Key:
[1] = target: T1, alcohol dehydrogenase (ADH) (Equus caballus, UniProt P00327); assay: Inhibition of ADH; format: biochemical; conditions: up to 200 μM, MES pH 6.2
T1 construct: purchased Sigma Aldrich 55689
Procedure: Reaction mixtures containing MES (100 mM, pH 6.2), MgCl2 (2 mM), ThDP (5 mM), ADH (16 U/mL), NADH (170 μM), and 1 (0 or 200 μM) were preincubated at 25 °C for 5 min. Enzymatic reactions were initiated via the addition of 20 μL of 10x acetaldehyde (final 1mM), or water for background controls, for a final well volume of 200 μL. Immediately following initiation, NADH depletion was monitored at 340 nm at 25 °C for 6 min with a 11 second time interval. Initial velocities of ethanol formation were measured as above and arithmetically corrected for background rates. Reported standard errors of the mean for Kis are calculated from three replicates.

[2] = Steady state CV, gold ultramicroelectrode; format: physicochemical; conditions: Tris pH 8, prepared aerobically then deoxygenated, gold UME
Source text: To provide additional evidence for DXPS-dependent reduction of 1, we used electrochemistry to continuously monitor the redox state of 1 during the course of a DXPS reaction. For these experiments, we used a gold ultramicroelectrode, which allowed us to observe the steady-state current corresponding to the reduction of 1, under diffusion control, during the progression of the reaction. […] Using Equation 4 (Electrochemical Measurements, Materials and Methods), it was estimated that the observed pseudo steady state current at −0.50 V corresponded to a one-electron transfer reaction. We used this voltage to interrogate the reduction of 1 during reaction with enzyme and substrates. […] Reactions were initiated in the cell via addition of different combinations of DXPS and substrates which were previously deoxygenated in an anaerobic chamber (Fig 9, S26). […] Returning to the CV, when measured after the chemical reaction transpires, the reduction peak nearly vanished as expected (Fig 9, S28).
Reaction solutions were prepared containing 2 mM MgCl2, 100 mM NaCl, 50 mM Tris pH 8, 1 mM ThDP, and 1 (final 1 mM) under aerobic conditions to allow for oxidation of 1. […] Reactions were initiated and mixed via gas tight Hamilton syringe at ~300 s and measured for at least 200 s. […]

PaDXPS = target: T2, PaDXPS (Pseudomonas aeruginosa, UniProt Q9KGU7); assay: DXPS-IspC coupled assay, PaDXPS; format: biochemical
T2 construct: made in house
T2 sequence (Q9KGU7 whole entry): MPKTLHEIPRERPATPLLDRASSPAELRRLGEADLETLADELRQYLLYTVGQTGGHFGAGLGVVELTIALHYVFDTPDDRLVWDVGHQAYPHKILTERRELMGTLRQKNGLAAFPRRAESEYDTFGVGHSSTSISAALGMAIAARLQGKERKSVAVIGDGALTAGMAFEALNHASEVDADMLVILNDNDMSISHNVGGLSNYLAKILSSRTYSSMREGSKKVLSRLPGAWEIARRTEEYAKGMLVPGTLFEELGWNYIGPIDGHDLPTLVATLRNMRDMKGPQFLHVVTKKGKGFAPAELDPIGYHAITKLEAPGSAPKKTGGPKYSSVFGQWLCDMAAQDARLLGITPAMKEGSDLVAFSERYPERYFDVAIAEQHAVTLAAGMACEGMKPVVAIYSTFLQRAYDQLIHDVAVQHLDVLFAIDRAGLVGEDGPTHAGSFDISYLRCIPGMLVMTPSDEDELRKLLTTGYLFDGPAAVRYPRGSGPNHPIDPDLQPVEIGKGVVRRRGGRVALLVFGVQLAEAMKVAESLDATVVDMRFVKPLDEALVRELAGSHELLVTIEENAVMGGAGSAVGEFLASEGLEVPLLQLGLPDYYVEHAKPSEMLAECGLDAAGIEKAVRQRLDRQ
Procedure: Inhibitory activity of compounds against DXPS were monitored via a continuous spectrophotometric coupled assay with DXPS and IspC as previously described.[41],[42] Briefly, Reaction mixtures containing HEPES (100 mM, pH 8.0), MgCl2 (2 mM), NaCl (5 mM), ThDP (1 mM), BSA (1 mg/mL), DXPS (125–500 nM), IspC (1.7 μM), NADPH (160 μM), DMSO (5%, v/v), and inhibitor (0–200 μM) were preincubated at 25 °C (or chamber temperature 25–30 °C) for 5 min. Enzymatic reactions were initiated via the addition of 20 μL of a 10x substrate mix for a final well volume of 200 μL. Reactions were performed in triplicate unless otherwise noted. See the following sections for details and modifications.
When varying pyruvate (0–500 μM), GAP was maintained at 50 μM (3 mM for R478A). When varying GAP (0–500 μM), pyruvate was maintained at 500 μM. The following [DXPS] were used when varying 1: WT EcDXPS, R478A, H431A, D427A (200 nM), R99A (500 nM), WT DrDXPS, WT PaDXPS (150 nM). Analogs 3 and 4 were tested using WT EcDXPS (150 nM). Reactions were incubated and initiated as described above. Immediately following initiation, NADPH depletion was monitored at 340 nm at 25 °C for 7–10 min with a 14–20 second time interval. Initial velocities of DXP formation were determined from the linear portion of the NADPH decay. Initial velocities were arithmetically corrected for background for compound 4. Initial velocities were plotted vs. substrate concentration, and the data were fit to equation 1 (mixed model), 2 (competitive), or 3 (uncompetitive) based on the calculated α value and goodness of fit in GraphPad Prism. Reported standard errors of the mean for Kis are calculated from three replicates.

T1 sequence (P00327 whole entry): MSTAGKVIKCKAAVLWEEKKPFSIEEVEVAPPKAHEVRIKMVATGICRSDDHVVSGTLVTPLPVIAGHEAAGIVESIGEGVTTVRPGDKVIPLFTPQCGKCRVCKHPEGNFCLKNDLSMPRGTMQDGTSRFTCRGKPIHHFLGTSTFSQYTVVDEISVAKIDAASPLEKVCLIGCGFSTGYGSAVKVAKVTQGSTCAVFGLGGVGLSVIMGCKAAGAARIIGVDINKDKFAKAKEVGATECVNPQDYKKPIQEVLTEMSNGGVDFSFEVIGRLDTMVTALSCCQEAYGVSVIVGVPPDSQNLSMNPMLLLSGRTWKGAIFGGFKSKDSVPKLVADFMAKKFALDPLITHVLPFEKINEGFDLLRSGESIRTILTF

Question: With `ON=Cc1cc(O)c(O)cc1O` [compound 1, 2,4,5-trihydroxybenzaldoxime] as the compound, how does the “Inhibition of ADH” value [1] read?
Answer: did not inhibit; also recorded: not inhibited

Question: And the “reduction half-height potential (steady state CV)” value [2]?
Answer: ~ −0.35 V

Question: And the Ki (PaDXPS)?
Answer: 16.4 ± 2.2 µM

Question: And the “MOI varying D-GAP” value (PaDXPS; PaDXPS)?
Answer: competitive

Question: What about the MOI varying pyruvate (PaDXPS; PaDXPS) of the same compound?
Answer: uncompetitive

Question: What about the “Ki/Ki^EcDXPS” value (PaDXPS; PaDXPS, vary pyruvate, fold reduction in potency) of the same compound?
Answer: 3.5
